According to PMC4019984, “Kinase and channel activity of TRPM6 are co-ordinated by a dimerization motif and pocket interaction” (Biochemical Journal, 2014):

Test system: GST-tagged TRPM6-(1700–end)
Assay: Phosphorylation site mapping of the dimerization peptide by TRPM6 kinase
Type: biochemical, human
Conditions: 500 μM biotinylated peptide, in vitro, trypsin digest, HPLC, Edman solid-phase sequencing
Procedure: A kinase reaction was set up in a volume of 20 μl, with the wild-type biotinylated dimerization peptide and the active (residues 1700–end) kinase fragment in buffer A containing 0.1% 2-mercaptoethanol, 10 mM MgCl2 and 0.1 mM [γ-^32P]ATP (~1000 cpm·pmol^−1). Assays were carried out for 30 min at 30°C with shaking at […] The reaction was terminated by the addition of LDS sample buffer. DTT was added to a final concentration of 10 mM, the samples were boiled, then alkylated with 50 mM iodoacetamide and subsequently resolved by a Bis-Tris 4–12% polyacrylamide gel, which was stained with Colloidal Coomassie Blue. […] Following tryptic digestion, more than 95% of the ^32P radioactivity incorporated in the gel bands was recovered, and the samples were chromatographed on a Vydac 218TP5215 C18 column (Separations Group) equilibrated in 0.1% trifluoroacetic acid in water. The column was developed with a linear acetonitrile gradient at a flow rate of 0.2 ml/min and fractions of 0.1 ml were collected and analysed for ^32P radioactivity by Cerenkov counting. Isolated phosphopeptides were analysed by MS analysis as follows. […] The five most intense ions, above a specified minimum signal threshold, based on a low-resolution (R=20000) preview of the survey scan, were fragmented by collision-induced dissociation and recorded in the linear ion trap (target value of 5000). […]

biotin-C6-LKSPQEPHHHYSAIERNNLMRLSQ-TIPFTPVQLFAGEEITV [biotinylated dimerization motif peptide, biotin-C6 wild-type dimerization motif peptide; conjugated to streptavidin–Sepharose]
phosphorylation site in dimerization motif peptide: threonine at position 22
